Source: patent US8501446B2 (Vertex Pharmaceuticals Incorporated, priority 2004, dated 2013)

How the values were obtained:
Type in all cases: biochemical
[1] = molecular target: T1, full length Aurora-A (AA 1-403) (Homo sapiens, UniProt O14965); assay: Aurora-A inhibition assay, standard coupled enzyme system; conditions: average Ki if more than one value determined
T1 construct: full length Aurora-A (AA 1-403)
T1 sequence (O14965 1-403): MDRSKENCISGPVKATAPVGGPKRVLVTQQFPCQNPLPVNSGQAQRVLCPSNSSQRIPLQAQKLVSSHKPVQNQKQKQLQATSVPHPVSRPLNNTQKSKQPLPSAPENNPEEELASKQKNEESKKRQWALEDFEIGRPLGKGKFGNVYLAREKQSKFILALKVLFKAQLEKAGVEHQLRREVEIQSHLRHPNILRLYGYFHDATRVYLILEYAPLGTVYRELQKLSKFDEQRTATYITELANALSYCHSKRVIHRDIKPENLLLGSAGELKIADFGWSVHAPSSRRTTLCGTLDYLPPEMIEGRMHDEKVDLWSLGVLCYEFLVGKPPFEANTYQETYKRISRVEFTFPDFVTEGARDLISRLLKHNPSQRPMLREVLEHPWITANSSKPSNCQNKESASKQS

JAK3 = molecular target: T2, JAK3 (Homo sapiens, UniProt P52333); assay: JAK3 inhibition assay (standard radioactive enzyme assay); conditions: average Ki if more than one value determined
T2 sequence (P52333 1-1124): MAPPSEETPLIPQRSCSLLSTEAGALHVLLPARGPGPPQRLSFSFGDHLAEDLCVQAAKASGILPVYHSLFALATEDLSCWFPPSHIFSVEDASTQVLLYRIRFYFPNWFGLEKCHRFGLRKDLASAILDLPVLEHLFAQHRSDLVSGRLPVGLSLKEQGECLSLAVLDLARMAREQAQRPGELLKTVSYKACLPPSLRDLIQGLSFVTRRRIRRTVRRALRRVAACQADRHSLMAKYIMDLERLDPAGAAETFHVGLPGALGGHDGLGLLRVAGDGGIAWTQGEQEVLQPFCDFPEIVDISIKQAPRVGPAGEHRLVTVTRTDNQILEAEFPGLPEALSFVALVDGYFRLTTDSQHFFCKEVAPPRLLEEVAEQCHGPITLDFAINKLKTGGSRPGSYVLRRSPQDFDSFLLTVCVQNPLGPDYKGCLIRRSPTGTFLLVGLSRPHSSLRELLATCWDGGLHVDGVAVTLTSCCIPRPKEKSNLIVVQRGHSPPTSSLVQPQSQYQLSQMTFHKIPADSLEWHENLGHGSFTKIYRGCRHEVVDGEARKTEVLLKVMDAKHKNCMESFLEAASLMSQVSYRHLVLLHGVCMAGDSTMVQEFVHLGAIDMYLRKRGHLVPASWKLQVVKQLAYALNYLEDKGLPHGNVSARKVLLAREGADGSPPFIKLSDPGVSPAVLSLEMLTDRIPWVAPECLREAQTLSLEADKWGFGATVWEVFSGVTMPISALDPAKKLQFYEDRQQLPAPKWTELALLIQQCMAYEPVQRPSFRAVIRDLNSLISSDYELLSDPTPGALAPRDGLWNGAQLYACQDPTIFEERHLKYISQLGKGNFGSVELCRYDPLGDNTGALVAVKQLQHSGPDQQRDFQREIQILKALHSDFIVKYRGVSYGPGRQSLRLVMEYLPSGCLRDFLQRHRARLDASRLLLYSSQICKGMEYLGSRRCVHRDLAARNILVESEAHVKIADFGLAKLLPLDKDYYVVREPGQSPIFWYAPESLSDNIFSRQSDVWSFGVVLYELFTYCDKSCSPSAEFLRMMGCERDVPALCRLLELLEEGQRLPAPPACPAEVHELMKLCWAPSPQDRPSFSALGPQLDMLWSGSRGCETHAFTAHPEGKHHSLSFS

ROCK I (AA 6-553) = molecular target: T3, ROCK I (AA 6-553) (Homo sapiens, UniProt Q13464); assay: ROCK inhibition assay, standard coupled enzyme system ("Enzyme"); conditions: enzyme-linked assay
T3 construct: ROCK I (AA 6-553)
Summary of the method: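 ROCK I (AA 6-553) at 45 nM and 30 °C with 45 μM ATP and 200 μM peptide, in 100 mM HEPES pH 7.5, 10 mM MgCl2, 25 mM NaCl, 2 mM DTT, 1.5% DMSO. ADP output read by a PK/LDH coupled system: 2.5 mM PEP, 350 μM NADH, 30 μg/ml PK, 10 μg/ml LDH.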

JAK2 = JAK2 (Homo sapiens, UniProt O60674); assay: JAK2 inhibition assay (radioactive enzyme assay, as for JAK3); conditions: average Ki if more than one value determined
Summary of the method: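 Both kinases: poly(Glu)4Tyr substrate in 100 mM HEPES pH 7.4, 10 mM MgCl2, 1 mM DTT. Run 20 min at 25° C, TCA stop, filter-bound ³³P counted, Ki(app) fitted after background subtraction. JAK3: final [γ-³³P]ATP 5 μM, enzyme added as 2 nM solution. JAK2: final poly(Glu)4Tyr 15 μM, final ATP 12 μM.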

T3 sequence (Q13464 6-553, species assumed): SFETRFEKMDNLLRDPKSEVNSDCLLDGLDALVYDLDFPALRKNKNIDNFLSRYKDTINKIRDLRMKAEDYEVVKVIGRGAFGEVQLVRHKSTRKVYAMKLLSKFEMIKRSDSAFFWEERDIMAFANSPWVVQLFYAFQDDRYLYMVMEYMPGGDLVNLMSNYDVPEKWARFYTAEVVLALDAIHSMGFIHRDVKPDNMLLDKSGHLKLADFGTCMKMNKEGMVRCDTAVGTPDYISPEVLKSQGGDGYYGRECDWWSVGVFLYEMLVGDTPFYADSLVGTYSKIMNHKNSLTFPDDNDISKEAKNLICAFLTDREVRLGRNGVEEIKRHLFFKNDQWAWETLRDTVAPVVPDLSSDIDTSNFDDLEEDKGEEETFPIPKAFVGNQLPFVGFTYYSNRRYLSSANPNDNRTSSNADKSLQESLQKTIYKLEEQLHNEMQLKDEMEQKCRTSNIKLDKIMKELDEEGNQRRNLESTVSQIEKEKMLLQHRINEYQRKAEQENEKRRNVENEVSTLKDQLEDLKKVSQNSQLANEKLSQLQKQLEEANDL
Sequence of JAK2 (O60674 whole entry, species assumed): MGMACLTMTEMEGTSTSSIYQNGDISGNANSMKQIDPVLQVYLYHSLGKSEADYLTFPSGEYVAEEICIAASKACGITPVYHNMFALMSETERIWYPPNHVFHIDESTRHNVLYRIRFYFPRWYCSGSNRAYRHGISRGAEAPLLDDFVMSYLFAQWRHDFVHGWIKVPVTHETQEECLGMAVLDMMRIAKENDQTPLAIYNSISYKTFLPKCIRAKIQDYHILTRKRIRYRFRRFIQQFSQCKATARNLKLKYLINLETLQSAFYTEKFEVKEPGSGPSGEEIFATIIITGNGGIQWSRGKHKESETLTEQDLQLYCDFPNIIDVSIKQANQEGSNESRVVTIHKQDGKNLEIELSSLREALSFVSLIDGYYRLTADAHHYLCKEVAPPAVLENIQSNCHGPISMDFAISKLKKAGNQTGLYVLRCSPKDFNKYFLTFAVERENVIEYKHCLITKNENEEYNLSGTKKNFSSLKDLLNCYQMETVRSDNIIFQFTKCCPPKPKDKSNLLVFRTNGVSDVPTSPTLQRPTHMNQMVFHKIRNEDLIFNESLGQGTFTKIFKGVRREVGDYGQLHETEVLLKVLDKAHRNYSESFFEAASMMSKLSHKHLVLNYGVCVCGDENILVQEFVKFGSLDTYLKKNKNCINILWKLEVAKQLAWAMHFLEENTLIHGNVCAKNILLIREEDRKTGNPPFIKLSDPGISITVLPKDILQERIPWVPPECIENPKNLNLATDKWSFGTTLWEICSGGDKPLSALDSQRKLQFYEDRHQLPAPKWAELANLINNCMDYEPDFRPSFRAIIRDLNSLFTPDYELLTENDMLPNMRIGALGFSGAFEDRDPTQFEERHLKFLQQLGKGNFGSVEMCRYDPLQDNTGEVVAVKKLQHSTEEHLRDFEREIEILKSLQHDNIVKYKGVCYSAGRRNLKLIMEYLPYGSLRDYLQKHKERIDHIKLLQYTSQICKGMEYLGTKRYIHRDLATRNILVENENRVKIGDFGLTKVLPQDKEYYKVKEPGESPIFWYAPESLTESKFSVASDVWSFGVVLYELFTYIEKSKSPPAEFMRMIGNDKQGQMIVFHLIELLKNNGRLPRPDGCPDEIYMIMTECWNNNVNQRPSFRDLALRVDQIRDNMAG

| Structure (SMILES) | Ki [1] [nM] | Ki (JAK3) [nM] | Ki (ROCK I (AA 6-553)) [nM] | Ki (JAK2) [nM] |
| --- | --- | --- | --- | --- |
| CC(=O)N1[C@H](C)CN(c2cccc(-c3c[nH]c4ncc(NC(=O)Oc5ccccc5)cc34)n2)C[C@@H]1C [Compound 69] | 500 to 5000 | < 500 | 500 to 5000 | < 500 |
| CC(=O)N1[C@H](C)CN(c2ccc(-c3nnn[nH]3)c(-c3c[nH]c4ncc(Cl)cc34)n2)C[C@@H]1C [Compound 110] | 500 to 5000 | 500 to 5000 | 500 to 5000 | 500 to 5000 |
| OC[C@H](Nc1cccc(-c2c[nH]c3ncc(Cl)cc23)n1)c1ccccc1 [Compound 100] | < 500 | < 500 | 500 to 5000 | < 500 |
| CC(=O)N1[C@H](C)CN(c2nc(-c3c[nH]c4ncc(Cl)cc34)ccc2N)C[C@@H]1C [Compound 76] | < 500 | < 500 | 500 to 5000 | < 500 |
| CC(=O)N1[C@H](C)CN(c2ccc(C#N)c(-c3c[nH]c4ncc(Cl)cc34)n2)C[C@@H]1C [Compound 93] | < 500 | < 500 | 500 to 5000 | < 500 |
| CC(=O)N1[C@H](C)CN(c2cccc(-c3c[nH]c4ncc(NC(=O)C5CC5)cc34)n2)C[C@@H]1C [Compound 165] | 500 to 5000 | < 500 | 500 to 5000 | < 500 |
| CC(=O)N1[C@H](C)CN(c2cccc(-c3c[nH]c4ncc(NC(=O)C5CCCC5)cc34)n2)C[C@@H]1C [Compound 166] | 500 to 5000 | < 500 | 500 to 5000 | < 500 |
| CNc1cnc2[nH]cc(-c3cccc(N4C[C@@H](C)N(C(C)=O)[C@@H](C)C4)n3)c2c1 [Compound 159] | 500 to 5000 | < 500 | 500 to 5000 | < 500 |
| CC(=O)N1[C@H](C)CN(c2nc(-c3c[nH]c4ncc(Cl)cc34)cc(C)c2C#N)C[C@@H]1C [Compound 79] | < 500 | < 500 | 500 to 5000 | < 500 |
| CC(=O)N1[C@H](C)CN(c2cccc(-c3c[nH]c4ncc(C(=O)NC5CCCCC5)cc34)n2)C[C@@H]1C [Compound 58] | 500 to 5000 | < 500 | 500 to 5000 | < 500 |
| CC(=O)N1[C@H](C)CN(c2cccc(-c3c[nH]c4ncc(NC(=O)c5cccs5)cc34)n2)C[C@@H]1C [Compound 182] | 500 to 5000 | < 500 | 500 to 5000 | < 500 |
| CC(=O)N1[C@H](C)CN(c2cccc(-c3c[nH]c4ncc(C(=O)N5C[C@@H](C)N[C@@H](C)C5)cc34)n2)C[C@@H]1C [Compound 52] | 500 to 5000 | > 5000 | 500 to 5000 | > 5000 |
| CC(=O)N1[C@H](C)CN(c2cccc(-c3c[nH]c4ncc(NC(=O)C5=CCCCC5)cc34)n2)C[C@@H]1C [Compound 155] | 500 to 5000 | < 500 | 500 to 5000 | < 500 |
| CC(=O)N1[C@H](C)CN(c2cccc(-c3c[nH]c4ncc(NC(=O)C5CCCCC5)cc34)n2)C[C@@H]1C [Compound 158] | 500 to 5000 | < 500 | 500 to 5000 | < 500 |
| CC(=O)N1[C@H](C)CN(c2cccc(-c3c[nH]c4ncc(NC(=O)c5cccc(F)c5)cc34)n2)C[C@@H]1C [Compound 169] | 500 to 5000 | < 500 | 500 to 5000 | < 500 |
| O=C(O)c1cc(Br)cc(-c2c[nH]c3ncc(Cl)cc23)c1 [Compound 177] | < 500 | < 500 | 500 to 5000 | < 500 |

| Structure (SMILES) | Ki [1] [nM] | Ki (JAK3) [nM] | Ki (ROCK I (AA 6-553)) [nM] | Ki (JAK2) [nM] |
| --- | --- | --- | --- | --- |
| CC(=O)N1[C@H](C)CN(c2cccc(-c3c[nH]c4ncc(NC(=O)c5cccc(C)c5)cc34)n2)C[C@@H]1C [Compound 168] | 500 to 5000 | < 500 | 500 to 5000 | < 500 |
| C=CC(=O)Nc1cnc2[nH]cc(-c3cccc(N4C[C@@H](C)N(C(C)=O)[C@@H](C)C4)n3)c2c1 [Compound 118] | 500 to 5000 | < 500 | 500 to 5000 | < 500 |
| CC(=O)N1[C@H](C)CN(c2cccc(-c3c[nH]c4ncc(NC(=O)c5ccccc5)cc34)n2)C[C@@H]1C [Compound 156] | 500 to 5000 | < 500 | < 500 | < 500 |
| CC(=O)N1[C@H](C)CN(c2cccc(-c3c[nH]c4ncc(NC(=O)c5cccc(C#N)c5)cc34)n2)C[C@@H]1C [Compound 179] | 500 to 5000 | < 500 | 500 to 5000 | < 500 |
| CC(=O)N1[C@H](C)CN(c2nc(-c3c[nH]c4ncc(Cl)cc34)ccc2[N+](=O)[O-])C[C@@H]1C [Compound 75] | < 500 | < 500 | < 500 | < 500 |
| O=C(O)c1ccc(-c2c[nH]c3ncc(Cl)cc23)nc1NCc1ccccc1 [Compound 42] | < 500 | < 500 | 500 to 5000 | < 500 |
| CC(=O)N1[C@H](C)CN(c2cccc(-c3c[nH]c4ncc(OCCN5CCOCC5)cc34)n2)C[C@@H]1C [Compound 95] | 500 to 5000 | 500 to 5000 | 500 to 5000 | 500 to 5000 |
| CC(=O)N1CCCN(c2cccc(-c3c[nH]c4ncc(C(=O)NCCN5CCOCC5)cc34)n2)CC1 [Compound 124] | 500 to 5000 | < 500 | 500 to 5000 | < 500 |
| CC(=O)N1[C@H](C)CN(c2ccc(N)c(-c3c[nH]c4ncc(Cl)cc34)n2)C[C@@H]1C [Compound 81] | < 500 | 500 to 5000 | 500 to 5000 | 500 to 5000 |
| CC(=O)N1[C@H](C)CN(c2cccc(-c3c[nH]c4ncc(C(=O)O)cc34)n2)C[C@@H]1C [Compound 47] | 500 to 5000 | < 500 | 500 to 5000 | < 500 |
| C[C@H](CO)Nc1cccc(-c2c[nH]c3ncc(Cl)cc23)n1 [Compound 102] | 500 to 5000 | < 500 | 500 to 5000 | < 500 |
| C=C/C=C/C(=O)Nc1cnc2[nH]cc(-c3cccc(N4C[C@@H](C)N(C(C)=O)[C@@H](C)C4)n3)c2c1 [Compound 191] | 500 to 5000 | < 500 | < 500 | < 500 |
| OC[C@@H](Nc1cccc(-c2c[nH]c3ncc(Cl)cc23)n1)c1ccccc1 [Compound 101] | < 500 | < 500 | 500 to 5000 | < 500 |
| CC(=O)N1[C@H](C)CN(c2cccc(-c3c[nH]c4ncc(C(=O)N5CCCCC5)cc34)n2)C[C@@H]1C [Compound 54] | < 500 | 500 to 5000 | 500 to 5000 | 500 to 5000 |
| CC(=O)N1[C@H](C)CN(c2cccc(-c3c[nH]c4ncc(NC(=O)CCN5CCNCC5)cc34)n2)C[C@@H]1C [Compound 128] | 500 to 5000 | < 500 | 500 to 5000 | < 500 |
| CC(=O)N1[C@H](C)CN(c2cc(C(N)=O)cc(-c3c[nH]c4ncc(Cl)cc34)n2)C[C@@H]1C [Compound 97] | < 500 | < 500 | 500 to 5000 | < 500 |
